The text below walks through data of patent US20150224157A1, “PROCESS FOR THE PREPARATION OF HERBAL EXTRACT OF CASSIA TORA LEAVES FOR TREATING ANXIETY DISORDERS” (priority 2009, published 2015).

The conditions of experiment [1]: cited from earlier work.
A further experiment relates to Swiss Albino male mice. Briefly: Elevated plus maze test in mice. In kind it is in vivo. Particulars: Diazepam 1.5 mg/kg p.o. Here is the method: 1. Animals: Swiss Albino male mice 20-25 gm body weights were procured from Laboratory Animal Services Division of Central Drug Research Institute, Lucknow. All animals were kept in polyacrylic cage in environmentally controlled rooms (temperature 24-27° C. and humidity 60-65% with 12:12 light:dark cycle). Food was provided in the form of dry pellets and water ad libitum. Each animal was used only once in the behavioral tests and were habituated with the experimental room one day prior to the experiment All experiments involving animals complies with the ethical standards of animal handling and approved by Institutional Animal Ethics Committee.
Treatment of animals: Diazepam was diluted in distilled water, administered by […]. The extract was dissolved in 0.5% gum acacia suspension and administered by oral route.
Elevated plus maze test in mice: This test was used to evaluate the anti-anxiety activity. The test is based on the principal of conflict between exploration and fear of open/or closed arms. Apparatus consists of a raised stainless steel maze of four arms arranged in ‘+’ sign. Two of opposite arms are enclosed by raised walls whereas other arms are kept open. All the four arms consist of infrared beams at regular distance. The movement of animal across the arms is calculated by interruption of beams, which was analyzed by Maze Tracking Software (M/s. Columbus Instruments, USA). The trial was started by placing an animal on the central platform of the maze facing an open arm. Animals were given a period of 2 min to acclimatize with its surroundings. The time spent in each of the two types of arm was recorded during the next 5 min test period. The percentage open arm time were used as index of anxiety. The apparatus was cleaned thoroughly between trials with damp and dry towels.
Diazepam (1.5 mg/kg) and the Cassia tora leaves extract (100 mg/kg) was orally administered one hour prior to the experiment.

The conditions of experiment [2]: dose of 0.2 mg/mL; cited from earlier work.
In experiment [3] the test system is aflatoxin B-1-8,9-epoxide formation. Conditions: cited from earlier work.

As to `CC1=CCC(O)(C(C)C)CC1` (stereo not drawn) [4-terpineol], the “IC50 against hydroxyl radicals” value in experiment [1] was 87.5 mu g/mL.

As to `CN1C(=O)CN=C(c2ccccc2)c2cc(Cl)ccc21` [Diazepam], the “percentage of time spent in open arms in comparison to saline treated control mice” value in the experiment on Swiss Albino male mice (extract 100 mg/kg p.o., P<0.01) is recorded as “significant increase”. The “% time spent in open arms” value in the experiment with Swiss Albino male mice (mice, extracts 100 mg/kg p.o.) came out at 23.38%. Also, the “Time spent in open arms (secs) out of 300 secs” value with Swiss Albino male mice (mice, extracts 100 mg/kg p.o., one hour prior, Mean ± SEM) turned out to be 70.16 ± 4.09 s.

For the compound `Cc1c(C)c2c(c(C)c1O)CC[C@@](C)(CCC[C@H](C)CCC[C@H](C)CCCC(C)C)O2` [alpha-tocopherol], the “inhibition of peroxidation of linoleic acid” value in experiment [2] is reported as 82%.

In the case of `O=C1c2ccc(O)cc2C(=O)c2ccc(O)cc21` [anthraflavine], the IC50 (usually the concentration at which inhibition is half-maximal) in experiment [3] was 26.9 µM.

Consider `O=C1c2cccc(O)c2C(=O)c2cccc(O)c21` [anthrarufm, anthrarufin], for which the IC50 in experiment [3] was 11.5 µM.

Take `O=c1c(O)c(-c2ccc(O)c(O)c2)oc2cc(O)cc(O)c12` [quercetin]: the “IC50 against hydroxyl radicals” value in experiment [1] is given as 8.15 mu g/mL.

Take `O=C1c2ccccc2C(=O)c2c(O)ccc(O)c21` [quinizarin]: in experiment [3], the IC50 is 4.12 µM.
